Measured values: paper PMC9611727, “Optimization of a Novel Mandelamide-Derived Pyrrolopyrimidine Series of PERK Inhibitors” (Pharmaceutics, 2022)
Numbering of substitutions follows the chain as printed.

Key:
FLT3(ITD) = experiment: scanMAX kinase panel; type: binding
Source text: (§1) Supplemental Table S2. scanMAXSM Kinome Assay Results. Complete tabulated data of all 468 kinases from the panel, including
(§2) 403 wild-type and 65 mutant isoforms. […] Cmpd 11 and Cmpd 24

FLT3(K663Q) = biological target: T1, FLT3(K663Q) (Homo sapiens, UniProt P36888, K663Q); experiment: scanMAX kinase panel; type: binding; details: read-out: % Control; for remaining binding at 1 µM: 1000 nM
T1 construct: purchased DiscoverX scanMAX
T1 sequence (P36888 27-993 K663Q): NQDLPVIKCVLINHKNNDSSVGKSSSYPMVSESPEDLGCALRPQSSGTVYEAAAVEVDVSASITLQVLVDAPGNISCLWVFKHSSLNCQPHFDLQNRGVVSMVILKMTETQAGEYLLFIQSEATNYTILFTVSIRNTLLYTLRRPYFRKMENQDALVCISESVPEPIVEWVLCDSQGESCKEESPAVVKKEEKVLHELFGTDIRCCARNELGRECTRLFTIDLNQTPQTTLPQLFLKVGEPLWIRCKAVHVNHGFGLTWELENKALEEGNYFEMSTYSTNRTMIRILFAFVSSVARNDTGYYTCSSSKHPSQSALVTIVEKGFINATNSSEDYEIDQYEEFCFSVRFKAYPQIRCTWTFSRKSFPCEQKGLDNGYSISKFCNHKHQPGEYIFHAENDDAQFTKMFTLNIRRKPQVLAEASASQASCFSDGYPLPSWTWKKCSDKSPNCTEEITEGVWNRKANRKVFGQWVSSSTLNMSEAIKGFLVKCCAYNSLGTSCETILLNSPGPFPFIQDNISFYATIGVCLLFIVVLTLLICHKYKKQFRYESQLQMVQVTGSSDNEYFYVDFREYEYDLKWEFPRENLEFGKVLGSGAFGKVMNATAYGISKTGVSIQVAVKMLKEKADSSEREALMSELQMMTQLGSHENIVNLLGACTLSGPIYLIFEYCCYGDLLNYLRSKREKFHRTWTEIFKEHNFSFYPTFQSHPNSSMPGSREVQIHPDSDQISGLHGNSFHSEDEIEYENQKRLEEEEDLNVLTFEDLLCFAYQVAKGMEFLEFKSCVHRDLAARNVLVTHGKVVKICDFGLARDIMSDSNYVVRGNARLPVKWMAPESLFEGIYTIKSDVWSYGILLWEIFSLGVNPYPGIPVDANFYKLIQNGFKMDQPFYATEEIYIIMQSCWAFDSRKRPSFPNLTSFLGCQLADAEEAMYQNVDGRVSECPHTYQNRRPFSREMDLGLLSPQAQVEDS
Source text: as §1, §2

FLT3(D835V) = biological target: T2, FLT3(D835V) (Homo sapiens, UniProt P36888, D835V); experiment: scanMAX kinase panel; type: binding; details: read-out: % Control; for remaining binding at 1 µM: 1000 nM
T2 construct: purchased DiscoverX scanMAX
T2 sequence (P36888 27-993 D835V): T1 sequence (P36888 27-993 K663Q) with Q637K, D809V
Source text: as §1, §2

Kasumi-1 (FLT3wt) = experiment: Cell viability assay, Kasumi-1; type: cell-based; details: Homo sapiens
MOLM-16 (FLT3wt) = experiment: Cell viability assay, MOLM-16; type: cell-based; details: Homo sapiens, MOLM16

Structure (SMILES)	% Control (FLT3(ITD); 1000 nM) [%]	remaining binding at 1 µM (FLT3(K663Q)) [%]	remaining binding at 1 µM (FLT3(D835V)) [%]	% Control (FLT3(ITD); 100 nM) [%]	remaining binding at 0.1 µM (FLT3(K663Q); 100 nM) [%]	remaining binding at 0.1 µM (FLT3(D835V); 100 nM) [%]	IC50 (Kasumi-1 (FLT3wt)) [µM]	IC50 (MOLM-16 (FLT3wt)) [µM]
Cc1cc(NC(=O)[C@H](O)c2cccc(F)c2)ccc1-c1cn(C)c2ncnc(N)c12 [Compound 11, (R)-N-(4-(4-amino-7-methyl-7H-pyrrolo[2,3-d]pyrimidin-5-yl)-3-methylphenyl)-2-(3-fluorophenyl)-2-hydroxy acetamide]	34	26	52	–	–	–	–	–
Cc1nc(N)c2c(-c3ccc(NC(=O)[C@H](O)c4cccc(C(F)(F)F)c4)cc3C)cn(C)c2n1 [Compound 26]	9.4	20	8.5	95	51	100	> 10	> 10
Cc1nc(N)c2c(-c3ccc(NC(=O)[C@H](O)c4cccc(F)c4)cc3C)cn(C)c2n1 [Compound 24]	94	83	100	–	–	–	–	–
